# According to patent US20120225937A1, “CRYSTALLINE FORMS AND PROCESSES FOR THE PREPARATION OF PG12 RECEPTOR AGONISTS” (Arena Pharmaceuticals, Inc., priority 2009, published 2012):
# Counter-ions that a name gives are not always drawn.
# Assay: Dynamic moisture sorption (DMS) analysis of crystalline forms
# Assay type: physicochemical
# Conditions: for DMS: weight picked up at 90% RH / DMS: increase of weight at about 90% relative humidity: isotherm 25° C.; for DMS: increase of weight at about 90% relative humidity: physical-property summary tables; for Hygroscopicity by DMS (in words): up to 90% RH; for Change of crystal form during DMS analysis (in words): high % RH
# Method: Further characterization with respect to hygroscopicity of the crystalline forms can be gauged by, for example, dynamic moisture sorption (DMS). The DMS features reported herein can vary by plus or minus about 5% relative humidity. The DMS features reported herein can also vary by plus or minus about 5% weight change.
# Samples are prepared for dynamic moisture-sorption analysis by placing ˜5 mg to ˜20 mg of compound in a tarred sample holder on the VTI balance. The instrument is a dynamic moisture-sorption analyzer, VTI Corporation, SGA-100, equipment #0228. A drying step is run at 40° C. and ˜1% RH for 1 h. The isotherm temperature is 25° C. A % weight change over 10 min (5 weight readings) of dm/dt=0.010 or 2 h, whichever occurs first, is required before continuing to the next step. The water content of the sample equilibrated as described above was determined from 30% RH to 90% RH and then back down to 10% RH.
Compound,DMS: weight picked up at 90% RH,DMS: increase of weight at about 90% relative humidity,Hygroscopicity by DMS (in words),Change of crystal form during DMS analysis (in words)
"N=C(N)NCCC[C@H](N)C(=O)O.O.O=C(COC[C@H]1CC[C@H](COC(=O)N(c2ccccc2)c2ccc(Cl)cc2)CC1)NCCS(=O)(=O)O [Compound Ia L-arginine salt hydrate, L-arginine 2-(2-(((1r,4r)-4-(((4-chlorophenyl)(phenyl)carbamoyloxy)methyl)cyclohexyl)methoxy)acetamido)ethanesulfonate hydrate]",about 1 % by weight,FIG. 31: Increase of about 1% weight at about 90% relative,slightly hygroscopic,
"O=C(COC[C@H]1CC[C@H](COC(=O)N(c2ccccc2)c2ccc(Cl)cc2)CC1)NCCS(=O)(=O)O [Compound Ia TRIS salt, 2-(2-(((1r,4r)-4-(((4-Chlorophenyl)(phenyl)carbamoyloxy)methyl)cyclohexyl)methoxy)acetamido)ethanesulfonic Acid]",about 1.2 % by weight,,slightly hygroscopic,
"O.O=C(COC[C@H]1CC[C@H](COC(=O)N(c2ccccc2)c2ccc(Cl)cc2)CC1)NCCS(=O)(=O)[O-].O=C(COC[C@H]1CC[C@H](COC(=O)N(c2ccccc2)c2ccc(Cl)cc2)CC1)NCCS(=O)(=O)[O-].[Mg+2] [Compound Ia magnesium salt hydrate, magnesium 2-(2-(((1r,4r)-4-(((4-chlorophenyl)(phenyl)carbamoyloxy)methyl)cyclohexyl)methoxy)acetamido)ethanesulfonate hydrate]",1.2 % by weight,FIG. 14: Increase of 1.2% weight at about 90% relative humidity,slightly hygroscopic,
"O.O=C(COC[C@H]1CC[C@H](COC(=O)N(c2ccccc2)c2ccc(Cl)cc2)CC1)NCCS(=O)(=O)[O-].O=C(COC[C@H]1CC[C@H](COC(=O)N(c2ccccc2)c2ccc(Cl)cc2)CC1)NCCS(=O)(=O)[O-].[Ca+2] [Compound Ia calcium salt hydrate I, calcium 2-(2-(((1r,4r)-4-(((4-chlorophenyl)(phenyl)carbamoyloxy)methyl)cyclohexyl)methoxy)acetamido)ethanesulfonate hydrate I]",about 7 % by weight,FIG. 17: Increase of 7% weight at about 90% relative humidity,hygroscopic,converting to Compound Ia calcium salt hydrate IV
"O.O=C(COC[C@H]1CC[C@H](COC(=O)N(c2ccccc2)c2ccc(Cl)cc2)CC1)NCCS(=O)(=O)[O-].[K+] [Compound Ia potassium salt hydrate, potassium 2-(2-(((1r,4r)-4-(((4-chlorophenyl)(phenyl)carbamoyloxy)methyl)cyclohexyl)methoxy)acetamido)ethanesulfonate hydrate]",3-4 % by weight,,slightly hygroscopic,
"O.O=C(COC[C@H]1CC[C@H](COC(=O)N(c2ccccc2)c2ccc(Cl)cc2)CC1)NCCS(=O)(=O)O [Compound Ia free acid hydrate, 2-(2-(((1r,4r)-4-(((4-chlorophenyl)(phenyl)carbamoyloxy)methyl)cyclohexyl)methoxy)acetamido)ethanesulfonic acid hydrate]",over 10 % by weight,FIG. 3: Increase of about 10% weight at about 90% relative,hygroscopic,form a new hydrate crystal phase at high % RH values
